Assay results: ChEMBL document CHEMBL3046496, “Hydrolysis and Phytotoxic Activity ofN-Aryl-3,4,5,6-tetrahydroisophthalimides” (Biosci Biotechnol Biochem, 1993)

How the values were obtained:
Type in all cases: ADME, organism-based
Scenedesmus acutus = experiment: Phytotoxic activity against Scenedesmus acutus assessed as protoporphyrin-IX accumulation at 1 uM incubated for 1 hr; settings: in vivo
[1] = Drug hydrolysis in culture medium of Echinochloa esculenta assessed as compound degradation measured at zero period in culture experiment by HPLC method; settings: read-out: Drug degradation
[2] = Half life in culture medium of Echinochloa esculenta after 7 days by HPLC method

Row | SMILES | Activity (Scenedesmus acutus) [nmol/mL] | degraded [1] [%] | half-life [2] [h]
1 | O=C1O/C(=N\c2ccc(Cl)cc2)C2=C1CCCC2 | 54.7 | 10 | 19.2
2 | Cc1cc(Cl)ccc1/N=C1\OC(=O)C2=C1CCCC2 | – | 33 | 7.2
3 | O=C1C2=C(CCCC2)C(=O)N1c1ccc(Cl)cc1 [CHLOROPHTHALIUM] | 68.2 | – | –
4 | C#CCOc1cc(/N=C2\OC(=O)C3=C2CCCC3)c(F)cc1Cl | – | 32 | 14.4
5 | O=C1O/C(=N\c2ccc(Cl)cc2F)C2=C1CCCC2 | – | 68 | –
6 | O=C1O/C(=N\c2ccc(OCc3ccc(Cl)cc3)cc2)C2=C1CCCC2 | – | 5 | 57.6
7 | O=C(O)C1=C(C(=O)Nc2ccc(Cl)cc2)CCCC1 | 17.6 | – | –
